Measurements published in patent US8906925B2, “Pyrido[4,3-B]indoles containing rigid moieties” (Medivation Technologies, Inc., priority 2008, dated 2014).
Like-named read-outs stand apart in the source and are kept apart here.

Key:
[1] = target: T1, human recombinant adrenergic α2C receptor (Homo sapiens, UniProt P18825); assay: Adrenergic α2C radioligand binding ([3H]MK-912); details: compound at 1 μM
T1 construct: expressed in transfected cells; host or cells: insect Sf9 cells
T1 sequence (P18825 1-462): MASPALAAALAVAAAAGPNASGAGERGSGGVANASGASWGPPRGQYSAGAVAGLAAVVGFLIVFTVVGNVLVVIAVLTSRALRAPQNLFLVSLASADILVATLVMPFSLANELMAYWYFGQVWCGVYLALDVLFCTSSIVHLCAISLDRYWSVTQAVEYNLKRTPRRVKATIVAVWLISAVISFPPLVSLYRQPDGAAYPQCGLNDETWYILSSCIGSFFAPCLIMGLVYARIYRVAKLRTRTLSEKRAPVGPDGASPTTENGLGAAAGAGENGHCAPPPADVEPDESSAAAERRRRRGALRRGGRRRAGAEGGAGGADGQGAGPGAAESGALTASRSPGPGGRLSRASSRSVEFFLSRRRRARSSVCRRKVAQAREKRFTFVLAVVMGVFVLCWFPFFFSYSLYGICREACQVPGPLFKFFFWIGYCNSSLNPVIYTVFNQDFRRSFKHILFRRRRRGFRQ
Method: To evaluate in radioligand binding assays the activity of compounds of the invention, human recombinant adrenergic α2C receptor expressed in insect Sf9 cells (Uhlen S et al. J Pharmacol Exp Ther. 271:1558, 1994) in a modified Tris-HCl buffer (50 mM Tris-HCl, pH 7.4, 12.5 mM MgCl2, 2 mM EDTA) was used. Compounds of the invention were incubated with 1 nM [^3H]MK-912 for 60 min. at 25° C. Non-specific binding was estimated in the presence of […] WB-4101. Receptor proteins were filtered and washed, the filters were then counted to determine [^3H]MK-912 specifically bound. Compounds were screened at 1 μM or lower, using 1% DMSO as vehicle. Compounds of the invention were tested in this biochemical assay and percent inhibition of specific binding was determined.

male Wistar rat = assay: Conditioned avoidance response (CAR) model; format: in vivo; details: 0.1, 0.3, 1, 3, 10 and 20 mg/kg, p.o.
Method: All currently approved antipsychotic agents (typical and atypical) are known to have the ability to selectively suppress conditioned avoidance response (CAR) behavior in the rat. This evidence makes CAR one of the primary tests to assess antipsychotic activity of novel compounds.
The effects of Compound Nos. 83, 88 and 90, at concentrations including 0.1, 0.3, 1, 3, 10 and 20 mg/kg, p.o., in the conditioned avoidance response model were assessed in the male Wistar rat. Risperidone (0.3 mg/kg, s.c.) was used in the present study as a positive reference compound.
For each testing session, animals were first placed for a 4-min. habituation period in a shuttlebox with an electrified grid floor. Then, rats were submitted to 30 trials spaced by intertribal intervals varying at random between 20 and 30 sec. Each trial consisted of a 10-sec. light stimulus (conditioned stimulus, CS) followed by a 10-sec. electric foot shock (unconditioned stimulus, US) in presence of the light presented in the compartment where the rat is located. If the animal moved to the other compartment during the initial 10-sec. of the trial, the light was terminated (no shock was delivered) and the response was recorded as an avoidance response. If the rat changed compartment during the foot shock, the light and the shock were terminated and the response was recorded as an unconditioned response. […] If a response was made during an intertrial interval, the response was recorded as an intertrial crossing. Training was performed 5 days per week with one session of 30 trials per day, until rats reached the performance criterion of 80% of avoidance response on at least two consecutive daily sessions. […] A minimal wash-out period of 48 hours was allowed between 2 treatments. During the wash-out period, animals were trained until they recovered an avoidance performance of at least 80%.
Statistical analysis was performed using a Friedman two-way ANOVA by ranks followed by the Wilcoxon matched-pairs signed-ranks test to test each dose of the test compound administered versus vehicle control treated rats.

C57B1I6J mice = assay: Catalepsy in the mouse bar test (EPS model); format: in vivo; details: for effects on catalepsy, ANOVA: 0.03, 0.1, 0.3, 1, 3, 10, 30 oral, 30 min, 1 h, and 3 h, incl. haloperidol group
From the text: Antipsychotic drugs are known to induce extrapyramidal syndrome (EPS) in animals and in humans. An animal model considered to be predictive of EPS is the mouse bar test, which measures cataleptic responses to pharmacological agents.
Male C57B1I6J mice from Jackson Laboratories (Bar Harbor, Me.) were used. Mice were received at 6-weeks of age. Upon receipt, mice were assigned unique identification numbers (tail marked) and were group housed with 4 mice/cage in OptiMICE ventilated cages. All animals remained housed in groups of four during the remainder of the study. All mice were acclimated to the colony room for at least two weeks prior to testing and were subsequently tested at an average age of 8 weeks. During the period of acclimation, mice were examined on a regular basis, handled, and weighed to assure adequate health and suitability. Animals were maintained on a 12 h/12 h light/dark cycle. The room temperature was maintained between 20 and 23° C. with a relative humidity maintained between 30% and 70%. Chow and water were provided ad libitum for the duration of the study. In each test, animals were randomly assigned across treatment groups.
The following compounds were used for this study. 1) Compound No. 83, 88 or 90 (0.03, 0.1, 0.3, 1, 3, 10, 30) was dissolved in 3% Tween in PBS and administered orally at a dose volume of 10 mL/kg; 2) Haloperidol (2 mg/kg) was dissolved in 10% DMSO and administered i.p. at a dose volume of 10 mL/kg.
The front paws of a mouse were placed on a horizontal metal bar raised 2″ above a Plexiglas platform and time was recorded for up to 30 seconds per trial. The test ended when the animal's front paws returned to the platform or after 30 seconds. The test was repeated three times and the average of the three trials was reported as the intensity index of catalepsy. Antipsychotic agents such as haloperidol cause rigidity as a side effect. Animals treated with haloperidol will hold on to the bar without moving for several minutes. Mice were brought to the activity experimental room for at least 1 h acclimation to the experimental room conditions prior to testing. Following injection of either vehicle, Compound No. 83, 88 or 90, or haloperidol, catalepsy was assessed at 3 time points: 30 min, 1 h, and 3 h. At the end of each trial, the apparatus was thoroughly cleaned with 70% ethanol.
Data were analyzed by analysis of variance (ANOVA) followed by post-hoc comparisons with Fisher Tests when appropriate. An effect was considered significant if p<0.05.

[2] = percent inhibition of specific binding, read-out: Inhibition of ligand binding, Adrenergic α2C

Row | SMILES | inhibition at 1 µM [1, 2] | number of avoidance responses versus pretreatment, compared to vehicle (male Wistar rat) | effects on catalepsy, ANOVA (C57B1I6J mice) | sedation observed in bar test (C57B1I6J mice; 30 mg/kg, oral) | other results
1 | Cc1ccc(C(O)Cn2c3c(c4cc(C)ccc42)CN(C)CC3)cc1 (racemic) [Compound 43, racemic-2-(1,2,3,4-tetrahydro-2,8-dimethylpyrido[4,3-b]indol-5-yl)-1-p-tolylethanol] | 100% |  |  |  | Inhibition of ligand binding, Adrenergic α2C ([1]; percent inhibition of specific binding, 1 µM): 94%
2 | CCN1CCc2c(c3ccccc3n2CC(O)c2ccc(C)cc2)C1 (racemic) [Compound 44, racemic-2-(2-ethyl-1,2,3,4-tetrahydropyrido[4,3-b]indol-5-yl)-1-p-tolylethanol] | 35% |  |  |  | 
3 | CCN1CCc2c(c3cc(C)ccc3n2CC(O)c2ccc(C)cc2)C1 (racemic) [Compound 51, racemic-2-(2-ethyl-1,2,3,4-tetrahydro-8-methylpyrido[4,3-b]indol-5-yl)-1-p-tolylethanol] | 92% |  |  |  | 
4 | Cc1ccc(C(O)Cn2c3c(c4ccccc42)CN(C)CC3)cc1 (racemic) [Compound 53, racemic-2-(1,2,3,4-tetrahydro-2-methylpyrido[4,3-b]indol-5-yl)-1-p-tolylethanol] | 82% |  |  |  | 
5 | C/C(=C\n1c2c(c3cc(Cl)ccc31)CN(C)CC2)c1ccc(F)cc1 [Compound 83, (E)-8-chloro-5-(2-(4-fluorophenyl)prop-1-enyl)-2,3,4,5-tetrahydro-2-methyl-1H-pyrido[4,3-b]indole] | 99% | significantly and dose-dependently decreased | significant treatment effect | caused sedation | sedation observed in bar test (C57B1I6J mice; 10 mg/kg, oral): also caused sedation, but at lower levels
6 | C/C(=C\n1c2c(c3cc(C)ccc31)CN(C)CC2)c1ccncc1 [Compound 88, (E)-2,3,4,5-tetrahydro-2,8-dimethyl-5-(2-(pyridin-4-yl)prop-1-enyl)-1H-pyrido[4,3-b]indole] |  | significantly and dose-dependently decreased | significant treatment effect | caused sedation | other effects in bar test (C57B1I6J mice; doses other than 30 mg/kg, oral): No other effects
7 | C/C(=C\n1c2c(c3cc(Cl)ccc31)CN(C)CC2)c1ccncc1 [Compound 90, (E)-8-chloro-2,3,4,5-tetrahydro-2-methyl-5-(2-(pyridin-4-yl)prop-1-enyl)-1H-pyrido[4,3-b]indole] |  | significantly and dose-dependently decreased | significant treatment effect | caused high levels of sedation | latency to hold the bar (C57B1I6J mice; 10 mg/kg, oral): increase; sedation observed in bar test (C57B1I6J mice; 10 mg/kg, oral): also caused sedation, but at lower levels
8 | Cc1ccc2c(c1)c1c(n2CC#Cc2ccccn2)CCN(C)C1 [Compound No. 500, 2,3,4,5-tetrahydro-2,8-dimethyl-5-(3-(pyridin-2-yl)prop-2-ynyl)-1H-pyrido[4,3-b]indole] |  |  |  |  | inhibition at 1 µM ([1]; 1 nM [3H]MK-912, read-out: Inhibition of ligand binding, Adrenergic α2C (percent inhibition of specific binding)): 43%
